Measured values: patent publication US20240408114A1, “METHODS FOR PREVENTING AND TREATING ACUTE KIDNEY INJURY” (The Johns Hopkins University, priority 2021, published 2024)

Assays:
[1] = system: ischemic AKI in C57BL/6J mice; assay: Ischemic AKI model (bilateral IRI 30 min): kidney function and histology; format: in vivo, mouse
Procedure: (§1) Mice were treated with 1.83 mg/kg of JHU083 or vehicle every other day via intraperitoneal injection and underwent bilateral IRI surgery on day 7 after the initial injection. […] Hollinger et al., 2020. Mice were followed up until 72 h after IRI, and T cells isolated from post-ischemic kidneys were studied (FIG. 14A).
Mice were anesthetized with an intraperitoneal injection of pentobarbital (75 mg/kg; Akorn, Lake Forest, IL). After shaving of abdominal hair, mice were placed onto a thermostatically controlled heating table. Abdominal midline incision was performed, and both renal pedicles were dissected and clamped for 30 min with a microvascular clamp (Roboz Surgical Instrument, Gaithersburg, MD). After 30 min, microvascular clamps were released from renal pedicles and the kidneys were inspected to confirm reperfusion. During the surgery, mice were kept well hydrated with 1 mL of warm sterile 0.9% saline. After being sutured, mice were allowed to recover with free access to chow and water. Sham surgeries were performed identically without clamping of renal pedicles.
Blood samples were obtained at 0, 24, 48, and 72 h after IRI or cisplatin injection through tail vein collection. Plasma creatinine concentration was measured by Cobas Mira Plus automated analyzer system (Roche, Indianapolis, IN) with creatinine reagent (Pointe Scientific Inc, Canton, MI).
At 24 h after IRI and 72 h after cisplatin injection, mice were anesthetized with ketamine (130 mg/kg; VetOne, Boise, ID) and xylazine (7 mg/kg; Akorn) intraperitoneal injection. After exsanguination, kidneys were collected and fixed with 10% buffered formalin followed by paraffin embedding. Tissue sections were stained with hematoxylin and eosin. A renal pathologist scored necrotic tubules in a blinded fashion.
(§2) Glutamine antagonist, JHU083 was synthesized as previously described, Rais et al., 2016, and dissolved in 50 mM […] 4-(2-hydroxyethyl)-1-piperazineethanesulfonic acid (HEPES) buffered 0.9% saline. Aliquot stocks were stored at −80° C. and thawed right before injection. Before the IRI surgery or cisplatin injection, mice were administered 1.83 mg/kg JHU083 (equivalent to 1 mg/kg DON) or vehicle (50 mM HEPES buffered 0.9% saline) every other day via intraperitoneal injection. Following 4 consecutive dosages, mice underwent IRI surgery or cisplatin injection. The last additional dose was given at 24 h after IRI or cisplatin injection. This dosage regimen was chosen based on efficiency and toxicity data from a previous study. Hollinger et al., 2020.

kidney T cells = assay: T cells from post-ischemic kidneys, spectral flow cytometry; format: in vivo, mouse
Procedure: as §1
KMNCs were isolated according to our previously described Percoll density gradient protocol. Ascon et al., 2006. Briefly, decapsulated kidneys were immersed and incubated in collagenase D (2 mg/mL; Sigma-Aldrich) solution for 30 min at 37° C. Samples were strained through 70 µm cell strainer (BD Bioscience, Franklin Lakes, NJ), washed, and resuspended in 40% Percoll (GE Healthcare, Chicago, IL) followed by gentle overlaying onto 80% Percoll. After centrifugation at 1,500 g for 30 min in brake off mode at room temperature, KMNCs were collected from interface between 40% and 80% Percoll. Spleens were strained through 40 µm cell strainer (BD Bioscience) and incubated with ammonium-chloride-potassium lysis buffer (Quality Biological, Gaithersburg, MD) for 3 min. Collected cells were washed and resuspended with Roswell Park Memorial Institute (RPMI) 1640 media (Thermo Fisher Scientific, Waltham, MA) containing 5% fetal bovine serum (FBS, Thermo Fisher Scientific). Cells were counted on hemocytometer using trypan blue exclusion under a microscope.
Cells were washed once with phosphate buffered saline (PBS) and stained with viability dye Zombie NIR Fixable Viability (BioLegend, San Diego, CA) for 15 min at room temperature. After washing with Cell Staining Buffer (BioLegend), cells were preincubated with anti-CD16/CD32 Fc receptor blocking antibody (S17011E, BioLegend) for 15 min to prevent nonspecific antibody binding. Subsequently, surface staining was performed in 50 μL of BD horizon™ Brilliant Stain buffer and surface staining antibody cocktail for 30 min at 4° C.: Pacific blue anti-CD44 (IM7, BioLegend), BV510 anti-CD8 (53-6.7, BioLegend), BV570 anti-CD45 (30-F11, BioLegend), BV605 anti-CD69 (H1.2F3, BioLegend), BV650 anti-NK1.1 (PK136, BioLegend), BV711 anti-PD1 (29F.1A12, BioLegend), BV785 anti-TCRβ (H57-597, BioLegend), PE-Cy5.5 anti-CD25 (PC61.5, Thermo Fisher Scientific), APC-R700 anti-CD62L (MEL-14, BD Bioscience), and APC-Fire810 anti-CD4 (GK1.5, BioLegend). Cells were fixed and permeabilized with Foxp3/Transcription Factor Staining kit (Thermo Fisher Scientific) for 30 min at room temperature and washed with permeabilization/wash buffer (Thermo Fisher Scientific). Intracellular staining was conducted in 50 μL of permeabilization/wash buffer with intracellular staining antibody cocktail for 45 min at room temperature: BV421 anti-Ki67 (16A8, BioLegend), Alexa Fluor 488 anti-CPT1a (8F6AE9, Abcam, Cambridge, UK), Alexa Fluor 532 anti-VDAC1 (20B12AF2, Abcam), PerCP-efluor 710 anti-FoxP3 (FJK-16S, Thermo Fisher Scientific), PE anti-GLUT1 (EPR3915, Abcam), Alexa Fluor 594 anti-pS6 (D68F8, Cell Signaling, Danvers, MA), PE-Cy5 anti-HKII (EPR20839, Abcam), PE-Cy7 anti-H3K27me3 (C36B11, Cell Signaling), and Alexa Fluor 647 anti-Tomm20 (EPR15581-54, Abcam). After staining, cells were washed with permeabilization/wash buffer then resuspended in Cell Staining Buffer. Samples were analyzed by 4-laser Aurora spectral flow cytometer (Cytek, Fremont, CA).
as §2, with “This dosage regimen was chosen based on efficiency and toxicity data from a previous study. Hollinger et al., 2020.” left out

[2] = post-ischemic kidneys, vs vehicle

CCOC(=O)[C@H](CCC(=O)C=[N+]=[N-])NC(=O)[C@@H](N)CC(C)C [JHU083]
plasma creatinine at 24 h ([1]; 24 h after IRI, JHU083 1.83 mg/kg i.p. every other day, mean±SEM, vehicle 1.61±0.18, P=0.026): 1.07 ± 0.14 mg/dL | cortical necrotic tubules ([1]; 24 h after IRI, vehicle 6.6±0.9, P=0.039): 4.2±0.5% | medullary necrotic tubules ([1]; 24 h after IRI, vehicle 69.7±3.1, P=0.093): 58.3±5.7% | renal injury ([1]; Example 1, FIG. 7, treated before inducing AKI): attenuated renal injury at 24 hr | expression of CD69, CD44, and Ki67 on kidney CD4+ and CD8+ T cells (kidney T cells; Example 1, FIG. 8, after ischemic AKI, vs vehicle control group): reduced expression | CD69+ among kidney CD8+ T cells (kidney T cells; post-ischemic kidneys, vehicle 24.9±2.3, P=0.019): 17.8±1.4% | CD62L+ among kidney CD4+ T cells (kidney T cells; post-ischemic kidneys, vehicle 29.0±1.6, P<0.001): 42.8±2.2 | CD62L+ among kidney CD8+ T cells (kidney T cells; post-ischemic kidneys, vehicle 44.9±3.2, P<0.001): 63.6±2.8 | Ki67+ among kidney CD4+ T cells (kidney T cells; post-ischemic kidneys, vehicle 58.7±2.9, P=0.035): 50.6±2.1% | CD69+ among kidney DN T cells (kidney T cells; post-ischemic kidneys, vehicle 60.6±2.5, P=0.005): 72.1±2.5% | Ki67+ among kidney CD8+ T cells (kidney T cells; post-ischemic kidneys, vehicle 61.2±4.2, P=0.043): 48.4±4.1% | CD44+ among kidney CD8+ T cells (kidney T cells; post-ischemic kidneys, vehicle 61.4±10.7, P=0.001): 40.9±11.2% | CD44+ among kidney CD4+ T cells (kidney T cells; post-ischemic kidneys, vehicle 67.5±1.7, P<0.001): 56.3±1.9% | Ki67+ among kidney DN T cells (kidney T cells; post-ischemic kidneys, vehicle 78.7±3.0, P=0.001): 91.2±1.1% | CD44+ among kidney DN T cells (kidney T cells; post-ischemic kidneys, vehicle 94.4±2.4, P=0.038): 96.4±1.2% | levels of the other metabolic enzymes in kidney T cells (kidney T cells; [2]): comparable between groups | proportions of CD4+, CD8+, DN T cells among total T cells and Tregs among CD4+ T cells (kidney T cells; [2]): comparable between groups | pS6 and HKII expression in kidney T cells (kidney T cells; post-ischemic kidneys, vs vehicle-treated mice): enhanced | number of total T cells in post-ischemic kidneys (kidney T cells; vs vehicle): reduced
